Data taken from patent US12448373B2, “Azetidinyl-acetamides as CXCR7 inhibitors” (CHEMOCENTRYX, INC., priority 2021, dated 2025).

target: T1, CXCR7 (Homo sapiens, UniProt P25106); test: CXCR7 β-arrestin recruitment assay in CHO-CXCR7 cells (ProLink/EA β-galactosidase complementation), induced by human SDF-1a; type: cell-based; conditions: assay buffer, SDF-1a at EC50 concentration
T1 construct: expressed in transfected cells; host or cells: CHO cells (CHO-CXCR7), transgenes maintained with Hygromycin B and G418
Method: CXCR7 is fused in frame with a small enzyme donor fragment ProLink and co-expressed in CHO cells stably expressing a fusion protein of β-arrestin and the larger, N-terminal deletion mutant of β-galactosidase (called enzyme acceptor or EA). Activation of the CXCR7 stimulates binding of β-arrestin to the ProLink-tagged CXCR7 and forces complementation of the two enzyme fragments, resulting in the formation of an active β-galactosidase enzyme. The β-galactosidase enzyme activity is measured with a substrate that generates fluorescence.
CHO-CXCR7 cells (0.22×10^6/mL) were cultured in growth medium (Ham's F-12 medium with 10% fetal bovine serum (FBS)), Hygromycin B (200 ug/mL) and G418 (250 ug/mL) were used to maintain the transgenes. The day before the assay, the cells were detached from culture dishes with 0.25% trypsin-EDTA (Corning, Catalog No. 25-053-CI), plated into 96 well plate (2.2×10^5 cells/mL, 100 μL/well) and incubated overnight at 37° C. with 5% CO2. On the day of the assay, cell culture medium was removed and 100 uL of assay buffer (PBS or FBS) was added to each well. 1 μL of compound that were serially diluted in DMSO was added to each well. 5 μL of human SDF-la (Pepro Tech, Catalog No. 300-28A, at EC50 concentration pre-determined on the same day) was then added and mixed to induce CXCR7-mediated β-arrestin recruitment. The plates were incubated for 1.5 hours at 37° C. The assay buffer was removed, 100 μL substrate solution was added and the reaction was carried out at 37° C. for 30 minutes. The substrate solution was prepared by mixing 100 mL Phosphate Buffer (1M, Sigma, Catalog No. P3619-1GA), 100 mL 10% Triton X 100 (Sigma, Catalog No. T8787.), 5 mL MgCl2 (1M, Sigma, Catalog No. M1028), 1.5 mL, β-mercaptoethanol (Gibco, Catalog No. 21985-023.). 3-carboxyumbelliferyl β-D-galactopyranoside (ThermoFisher Scientific, Catalo No. F2905) was added at 0.4 mM right before use. The reaction was then stopped by adding 50 μL of Stop Solution (2.1% w/v Na2CO3) to each well. Fluorescence intensity was measured with a FlexStation 3 microplate reader (Molecular Devices) with the following setting—excitation: 360 nm, emission: 465 nm, manual Gain: 55. IC50 values were calculated with GraphPad Prism using 3 parameter nonlinear regression.

T1 sequence (P25106 whole entry): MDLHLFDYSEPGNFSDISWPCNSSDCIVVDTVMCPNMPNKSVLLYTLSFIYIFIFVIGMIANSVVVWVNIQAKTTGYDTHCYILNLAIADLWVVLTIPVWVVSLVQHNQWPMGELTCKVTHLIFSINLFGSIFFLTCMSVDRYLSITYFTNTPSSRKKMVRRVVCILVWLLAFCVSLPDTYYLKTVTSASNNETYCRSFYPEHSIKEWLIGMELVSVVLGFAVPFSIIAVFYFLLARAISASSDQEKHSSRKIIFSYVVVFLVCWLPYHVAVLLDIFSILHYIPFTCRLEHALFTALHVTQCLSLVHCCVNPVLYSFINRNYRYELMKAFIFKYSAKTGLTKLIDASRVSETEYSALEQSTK

| SMILES | IC50 |
| --- | --- |
| CC(C)CN1CC(CC(=O)NC(C)(C)c2ccccn2)(NC(=O)c2cc(-c3ccc(F)cc3F)on2)C1 [Example 1.129] | 5 to 100 nM |
| CC(C)(NC(=O)CC1(NC(=O)c2cc(-c3ccc(F)cc3F)on2)CN(CC2CC2)C1)c1ccccn1 [Example 1.327] | 5 to 100 nM |
| CC(C)(O)CN1CC(CC(=O)NC(C)(C)c2cc(Cl)ccc2F)(NC(=O)c2cc(-c3ccc(F)cc3F)on2)C1 [Example 1.134] | 5 to 100 nM |
| O=C(CC1(NC(=O)c2cc(-c3ccc(F)cc3F)on2)CN(C2CCCC2)C1)NC1(c2ncccn2)CC1 [Example 1.331] | 5 to 100 nM |
| COc1ccc(F)c(C(C)(C)NC(=O)CC2(NC(=O)c3cc(-c4ccc(F)cc4F)on3)CN([C@H]3CC[C@@](C)(O)CC3)C2)c1 [Example 1.205] | 5 to 100 nM |
| CC(C)(NC(=O)CC1(NC(=O)c2cc(-c3ccc(F)cc3F)on2)CN([C@H]2CC[C@@](C)(O)CC2)C1)c1ccc(Cl)cc1 [Example 1.249] | 5 to 100 nM |
| CC(C)(NC(=O)CC1(NC(=O)c2cc(-c3ccc(F)cc3F)on2)CN(C2CCCC2)C1)c1ccccn1 [Example 1.094] | 5 to 100 nM |
| CC(C)(NC(=O)CC1(NC(=O)c2cc(-c3ccc(F)cc3F)on2)CN([C@H]2CC[C@](C)(O)CC2)C1)c1ccnc(C#N)c1 [Example 1.162] | 5 to 100 nM |
| CC(C)(NC(=O)CC1(NC(=O)c2cc(-c3ccc(F)cc3F)on2)CN(C2CCCCC2)C1)c1cccc(C(F)(F)F)c1 [Example 1.271] | 100 to 1000 nM |
| CC1(C)CC(N2CC(CC(=O)NC(C)(C)c3ccccn3)(NC(=O)c3cc(-c4ccc(F)cc4F)on3)C2)CCO1 (stereo not drawn) [Example 1.013] | 5 to 100 nM |
| COc1cccc(C(C)(C)NC(=O)CC2(NC(=O)c3cc(-c4ccc(F)cc4F)on3)CN([C@H]3CC[C@@](C)(O)CC3)C2)c1 [Example 1.238] | 5 to 100 nM |
| CC(C)(NC(=O)CC1(NC(=O)c2cc(-c3ccc(F)cc3F)on2)CN([C@H]2CC[C@@](C)(O)CC2)C1)c1ccnc(C2CC2)c1 [Example 1.146] | 5 to 100 nM |
| Cc1cccc(C(C)(C)NC(=O)CC2(NC(=O)c3nnc(-c4ccc(F)cc4F)s3)CN(CC(C)C)C2)n1 [Example 1.027] | 5 to 100 nM |
| COc1cccc(C(C)(C)NC(=O)CC2(NC(=O)c3cc(-c4ccc(F)cc4F)on3)CN([C@H]3CC[C@@](C)(O)CC3)C2)c1F [Example 1.195] | 5 to 100 nM |
| Cc1cncc(C(C)(C)NC(=O)CC2(NC(=O)c3cc(-c4ccc(F)cc4F)on3)CN([C@H]3CC[C@](C)(O)CC3)C2)c1 [Example 1.140] | 5 to 100 nM |
| COC[C@@H](NC(=O)CC1(NC(=O)c2cc(-c3ccc(F)cc3F)on2)CN(C2CCCCC2)C1)c1ccccc1 [Example 1.295] | 100 to 1000 nM |
| Cc1cc(C)nc(C(C)(C)NC(=O)CC2(NC(=O)c3cc(-c4ccc(F)cc4F)on3)CN(CC3(C)COC3)C2)n1 [Example 1.131] | 1000 to 20000 nM |
| CC(C)(NC(=O)CC1(NC(=O)c2cc(-c3ccc(F)cc3F)on2)CN(CC2COC2)C1)c1cccc(Cl)c1 [Example 1.135] | 100 to 1000 nM |
| CC(C)(NC(=O)CC1(NC(=O)c2cc(-c3ccc(F)cc3F)no2)CN([C@H]2CC[C@@](C)(O)CC2)C1)c1cccc(Cl)c1 [Example 1.047] | 5 to 100 nM |
| COc1ccnc(C(C)(C)NC(=O)CC2(NC(=O)c3cc(-c4ccc(F)cc4F)on3)CN([C@H]3CC[C@@](C)(O)CC3)C2)c1 [Example 1.200] | 5 to 100 nM |
| CC(C)(NC(=O)CC1(NC(=O)c2ncc(-c3ccc(F)cc3F)s2)CN([C@H]2CC[C@](C)(O)CC2)C1)c1cccc(Cl)c1 [Example 1.046] | 5 to 100 nM |
| CC(C)N1CC(CC(=O)NC2(c3ncccn3)CC2)(NC(=O)c2cc(-c3ccc(F)cc3F)on2)C1 [Example 1.333] | 100 to 1000 nM |
| CC(C)(NC(=O)CC1(NC(=O)c2cc(-c3ccc(F)cc3F)on2)CN(C2CCOCC2)C1)c1ccccn1 [Example 1.317] | 5 to 100 nM |
| COc1cccc(C(C)(C)NC(=O)CC2(NC(=O)c3cc(-c4ccc(F)cc4F)on3)CN(CC(C)(C)O)C2)c1 [Example 1.179] | 5 to 100 nM |
| O=C(CC1(NC(=O)c2cc(-c3ccc(F)cc3F)on2)CN(C2CCCCC2)C1)N[C@@H](C(=O)O)c1ccccc1 [Example 1.282] | 1000 to 20000 nM |
| CC(C)CN1CC(CC(=O)NC(C)(C)c2cccc(Cl)c2)(NC(=O)c2cc(-c3ccc(F)cc3F)on2)C1 [Example 1.120] | 5 to 100 nM |
| CC(C)(F)CN1CC(CC(=O)NC(C)(C)c2cccc(Cl)c2)(NC(=O)c2cc(-c3ccc(F)cc3F)on2)C1 [Example 1.096] | 100 to 1000 nM |
| CC(C)(NC(=O)CC1(NC(=O)c2cc(-c3ccc(F)cc3F)on2)CN(C2CCCCC2)C1)c1ncccn1 [Example 1.270] | 5 to 100 nM |
| CC(C)CN1CC(CC(=O)NC(C)(C)c2cc(Cl)cc(Cl)c2)(NC(=O)c2cc(-c3ccc(F)cc3F)on2)C1 [Example 1.093] | 5 to 100 nM |

Other lines, results leading:

| IC50 | SMILES |
| --- | --- |
| < 5 nM | CC(C)(NC(=O)CC1(NC(=O)c2cc(-c3ccc(F)cc3F)on2)CN([C@H]2CC[C@@](C)(O)CC2)C1)c1cccc(Cl)c1 [Example 1.220] |
| 5 to 100 nM | Cc1cc(C(F)(F)F)cc(C(C)(C)NC(=O)CC2(NC(=O)c3nnc(-c4ccc(F)cc4F)s3)CN([C@H]3CC[C@](C)(O)CC3)C2)n1 [Example 1.349] |
| 5 to 100 nM | CC(C)(NC(=O)CC1(NC(=O)c2cc(-c3ccc(F)cc3F)on2)CN([C@H]2CC[C@@](C)(O)CC2)C1)c1ccc(F)c(F)c1 [Example 1.256] |
| 5 to 100 nM | CC(C)(NC(=O)CC1(NC(=O)c2cc(-c3ccc(F)cc3F)on2)CN(C2CCCCC2)C1)c1ccc(Cl)nc1 [Example 1.284] |
| 5 to 100 nM | O=C(CC1(NC(=O)c2cc(-c3ccc(F)cc3F)on2)CN(C2CCCCC2)C1)N[C@H](CO)c1ccccc1 [Example 1.316] |
| < 5 nM | CC(C)(NC(=O)CC1(NC(=O)c2cc(-c3ccc(F)cc3F)on2)CN([C@H]2CC[C@@](C)(O)CC2)C1)c1cc(Cl)cc(Cl)c1 [Example 1.086] |
| < 5 nM | Cc1cccc(C(C)(C)NC(=O)CC2(NC(=O)c3cc(-c4ccc(F)cc4F)on3)CN([C@H]3CC[C@@](C)(O)CC3)C2)c1 [Example 1.214] |
| < 5 nM | CC(C)(NC(=O)CC1(NC(=O)c2cc(-c3ccc(F)cc3F)on2)CN(C2CCCCC2)C1)c1ccccc1F [Example 1.302] |
| < 5 nM | CC(C)(NC(=O)CC1(NC(=O)c2cc(-c3ccc(F)cc3F)on2)CN([C@H]2CC[C@](C)(O)CC2)C1)c1ccccn1 [Example 1.303] |
| < 5 nM | CC(C)(NC(=O)CC1(NC(=O)c2cc(-c3ccc(F)cc3F)no2)CN([C@H]2CC[C@](C)(O)CC2)C1)c1cccc(Cl)c1 [Example 1.048] |
| < 5 nM | COC1CCCCC1N1CC(CC(=O)NC(C)(C)c2ccccn2)(NC(=O)c2cc(-c3ccc(F)cc3F)on2)C1 (stereo not drawn) [Example 1.305] |
| < 5 nM | CC(C)(NC(=O)CC1(NC(=O)c2cc(-c3ccc(F)cc3F)on2)CN(C2CCCCC2)C1)c1cccc(F)n1 [Example 1.297] |
| < 5 nM | Cc1cccc(C(C)(C)NC(=O)CC2(NC(=O)c3cc(-c4ccc(F)cc4F)on3)CN([C@H]3CC[C@](C)(O)CC3)C2)n1 [Example 1.121] |
| < 5 nM | CC(C)(NC(=O)CC1(NC(=O)c2cc(-c3ccc(F)cc3F)on2)CN(C2CCC3(CC2)COC3)C1)c1ccccn1 [Example 1.294] |
| < 5 nM | Cc1cc(C)nc(C(C)(C)NC(=O)CC2(NC(=O)c3nnc(-c4ccc(F)cc4F)s3)CN(C3CCCCC3)C2)n1 [Example 1.070] |
| < 5 nM | Cc1ccccc1C(C)(C)NC(=O)CC1(NC(=O)c2cc(-c3ccc(F)cc3F)on2)CN([C@H]2CC[C@](C)(O)CC2)C1 [Example 1.215] |
| < 5 nM | CC(C)(NC(=O)CC1(NC(=O)c2cc(-c3ccc(F)cc3F)on2)CN([C@H]2CC[C@](C)(O)CC2)C1)c1ccccc1F [Example 1.228] |
| < 5 nM | Cc1cc(C)nc(C(C)(C)NC(=O)CC2(NC(=O)c3cc(-c4ccc(F)cc4F)on3)CN(CC3(C)CCC3)C2)n1 [Example 1.001] |
| < 5 nM | Cc1cc(Cl)cc(C(C)(C)NC(=O)CC2(NC(=O)c3cc(-c4ccc(F)cc4F)on3)CN([C@H]3CC[C@@](C)(O)CC3)C2)c1 [Example 1.083] |
| < 5 nM | Cc1cc(C(C)(C)NC(=O)CC2(NC(=O)c3cc(-c4ccc(F)cc4F)on3)CN([C@H]3CC[C@@](C)(O)CC3)C2)ccn1 [Example 1.210] |
| < 5 nM | Cc1ccc(F)c(C(C)(C)NC(=O)CC2(NC(=O)c3cc(-c4ccc(F)cc4F)on3)CN([C@H]3CC[C@](C)(O)CC3)C2)c1 [Example 1.185] |
| < 5 nM | Cc1cc(C)nc(C(C)(C)NC(=O)CC2(NC(=O)c3cc(-c4ccc(F)cc4F)on3)CN([C@H]3CC[C@](C)(O)CC3)C2)c1 [Example 1.106] |
